Experimental data: US10508120B2, “TYK2 inhibitors and uses thereof” (Nimbus Lakshmi, Inc., priority 2017, dated 2019)

Legend:
[1] = biological target: Tyk2 kinase domain (DH1) (Homo sapiens (Human), UniProt P29597); experiment: Tyk2 Radioactive Kinase Assay; format: biochemical; conditions: compound at 10 μM; ATP 10 μM; read-out: Tyk2 JH1% Inhibition @ 10 μM
Procedure, shortened: (§1)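 Single-point screen: 10 μM test compound, radioactive kinase read-out, percent inhibition reported for each kinase domain.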

[2] = biological target: human TYK2 (JH2domain-pseudokinase) (Homo sapiens (Human), UniProt P29597); experiment: TYK2 JH2 Domain Binding Assay (KINOMEscan)
Procedure, shortened: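 Pseudokinase domain binding was measured by qPCR of tagged, bead-retained kinase after 1 h room-temperature competition, with 0.9% DMSO and compound up to 30,000 nM in 3-fold steps. Hill-equation Kd, duplicate.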

[3] = biological target: JAK2 kinase domain (JH1) (Homo sapiens (Human), UniProt O60674); experiment: JAK2 Radioactive Kinase Assay; format: biochemical; conditions: compound at 10 μM; ATP 10 μM; read-out: JAK2 JH1% Inhibition @ 10 μM
Procedure, shortened: as §1

Tyk2 kinase domain (DH1), sequence (P29597 897-1176): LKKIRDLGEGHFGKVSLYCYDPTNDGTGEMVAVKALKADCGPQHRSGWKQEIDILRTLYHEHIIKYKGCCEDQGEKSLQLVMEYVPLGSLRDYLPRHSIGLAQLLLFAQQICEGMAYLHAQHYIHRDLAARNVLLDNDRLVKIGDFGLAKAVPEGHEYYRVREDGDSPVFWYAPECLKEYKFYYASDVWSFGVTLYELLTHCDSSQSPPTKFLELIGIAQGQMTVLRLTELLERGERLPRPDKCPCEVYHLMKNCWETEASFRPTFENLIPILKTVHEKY
JAK2 kinase domain (JH1), sequence (O60674 849-1124): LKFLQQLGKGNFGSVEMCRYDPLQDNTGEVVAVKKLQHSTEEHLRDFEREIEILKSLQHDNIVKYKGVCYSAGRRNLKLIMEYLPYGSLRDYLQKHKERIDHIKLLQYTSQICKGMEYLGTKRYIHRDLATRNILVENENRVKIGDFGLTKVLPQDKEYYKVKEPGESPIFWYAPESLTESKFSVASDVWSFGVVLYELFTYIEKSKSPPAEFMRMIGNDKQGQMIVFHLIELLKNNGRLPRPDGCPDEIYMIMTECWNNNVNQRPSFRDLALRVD
human TYK2 (JH2domain-pseudokinase), sequence (P29597 556-888): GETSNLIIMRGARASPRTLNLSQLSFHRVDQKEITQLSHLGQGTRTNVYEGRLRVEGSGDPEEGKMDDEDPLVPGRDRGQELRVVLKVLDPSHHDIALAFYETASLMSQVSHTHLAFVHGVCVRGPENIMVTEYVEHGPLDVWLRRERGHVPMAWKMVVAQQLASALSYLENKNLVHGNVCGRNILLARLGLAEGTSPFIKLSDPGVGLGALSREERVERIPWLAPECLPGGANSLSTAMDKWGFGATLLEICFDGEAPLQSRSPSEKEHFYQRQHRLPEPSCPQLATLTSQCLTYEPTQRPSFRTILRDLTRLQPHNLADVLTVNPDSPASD

`Cc1cc(C)cc(Nc2cc(N)n3ncc(C(N)=O)c3n2)c1` [I-21] showed an inhibition at 10 µM [1] of less than 50%, a Kd [2] of 0.2 to 1 nM and an inhibition at 10 µM [3] of 70 to 90%.
In the case of `NC(=O)c1cnn2c(N)cc(Nc3cccc(N4CCOCC4)c3Cl)nc12` [I-22], the inhibition at 10 µM [1] is reported as less than 50%, the Kd [2] is reported as 0.2 to 1 nM and the inhibition at 10 µM [3] is reported as 70 to 90%.
`NC(=O)c1cnn2c(N)cc(Nc3cccc(N4CCCC4)c3Cl)nc12` [I-23] was tested, and the inhibition at 10 µM [1] was less than 50%, the Kd [2] was 1 to 10 nM and the inhibition at 10 µM [3] was 70 to 90%.
With `CNc1cc(Nc2cccnc2OC)nc2c(C(N)=O)cnn12` [I-24] the inhibition at 10 µM [1] was less than 50%, the Kd [2] was less than 0.2 nM and the inhibition at 10 µM [3] was less than 50%.
With `NC(=O)c1cnn2c(N)cc(Nc3cccn(-c4ccc(F)cc4)c3=O)nc12` [I-25] the inhibition at 10 µM [1] was less than 50%, the Kd [2] was 0.2 to 1 nM and the inhibition at 10 µM [3] was less than 50%.
For `CNc1cc(Nc2cc(C)cn(-c3ccn(C)n3)c2=O)nc2c(C(N)=O)cnn12` [I-26], the inhibition at 10 µM [1] was less than 50%, the Kd [2] was less than 0.2 nM and the inhibition at 10 µM [3] was less than 50%.
Work on `CNc1cc(Nc2cc(C)nc(N3CCCC3)c2)nc2c(C(N)=O)cnn12` [I-27] yielded an inhibition at 10 µM [1] of less than 50%, a Kd [2] of 1 to 10 nM and an inhibition at 10 µM [3] of less than 50%.
`Cc1cc(Nc2cc(N)n3ncc(C(N)=O)c3n2)cc(N2CCCC2)n1` [I-28] showed an inhibition at 10 µM [1] of less than 50%, a Kd [2] greater than 10 nM and an inhibition at 10 µM [3] of less than 50%.
`CNc1cc(Nc2cc(C)nc(N3CC[C@@H](OC)C3)c2)nc2c(C(N)=O)cnn12` [I-29] was tested, and the inhibition at 10 µM [1] was less than 50%, the Kd [2] was 1 to 10 nM and the inhibition at 10 µM [3] was less than 50%.
`CO[C@@H]1CCN(c2cc(Nc3cc(N)n4ncc(C(N)=O)c4n3)cc(C)n2)C1` [I-30] gave an inhibition at 10 µM [1] of less than 50%, a Kd [2] of 1 to 10 nM and an inhibition at 10 µM [3] of less than 50%.
Work on `Cc1cc(Nc2cc(N)n3ncc(C(N)=O)c3n2)c(=O)n(-c2cnn(C)c2)c1` [I-32] yielded an inhibition at 10 µM [1] of less than 50%, a Kd [2] of 0.2 to 1 nM and an inhibition at 10 µM [3] of less than 50%.
For `CCOc1ccc(-n2cccc(Nc3cc(N)n4ncc(C(N)=O)c4n3)c2=O)nn1` [I-33], the inhibition at 10 µM [1] was less than 50%, the Kd [2] was 0.2 to 1 nM and the inhibition at 10 µM [3] was less than 50%.
`Cc1cc(Nc2cc(N)n3ncc(C(N)=O)c3n2)c(=O)n(-c2ccn(C)n2)c1` [I-34] gave an inhibition at 10 µM [1] of less than 50%, a Kd [2] of 0.2 to 1 nM and an inhibition at 10 µM [3] of less than 50%.
Compound `CNc1cc(Nc2cccn(-c3cccc(C(C)(C)O)n3)c2=O)nc2c(C(N)=O)cnn12` [I-37] has an inhibition at 10 µM [1] of less than 50%, a Kd [2] of less than 0.2 nM and an inhibition at 10 µM [3] of less than 50%.
In the case of `CN(C)C(=O)c1cnc(-n2cccc(Nc3cc(N)n4ncc(C(N)=O)c4n3)c2=O)cn1` [I-38], the inhibition at 10 µM [1] is reported as less than 50%, the Kd [2] is reported as 0.2 to 1 nM and the inhibition at 10 µM [3] is reported as less than 50%.
For `CNc1cc(-c2ccn(-c3ccccc3)n2)nc2c(C(N)=O)cnn12` [I-39, 7-(methylamino)-5-(1-phenyl-1H-pyrazol-3-yl)pyrazolo[1,5-a]pyrimidine-3-carboxamide], the inhibition at 10 µM [1] was less than 50%, the Kd [2] was 1 to 10 nM and the inhibition at 10 µM [3] was less than 50%.
In the case of `CNc1cc(Nc2cc(Cl)cn(C3CNC3)c2=O)nc2c(C(N)=O)cnn12` [I-40], the inhibition at 10 µM [1] is reported as less than 50%, the Kd [2] is reported as 0.2 to 1 nM and the inhibition at 10 µM [3] is reported as less than 50%.
`CC(C)(O)c1cccc(-n2cccc(Nc3cc(N)n4ncc(C(N)=O)c4n3)c2=O)n1` [I-41] was tested, and the inhibition at 10 µM [1] was less than 50%, the Kd [2] was 1 to 10 nM and the inhibition at 10 µM [3] was less than 50%.
In the case of `Cc1nccc(-n2cccc(Nc3cc(N)n4ncc(C(N)=O)c4n3)c2=O)n1` [I-42], the inhibition at 10 µM [1] is reported as less than 50%, the Kd [2] is reported as 1 to 10 nM and the inhibition at 10 µM [3] is reported as less than 50%.
Work on `CNc1cc(Nc2cccn(-c3ccon3)c2=O)nc2c(C(N)=O)cnn12` [I-43, 5-((1-(isoxazol-3-yl)-2-oxo-1,2-dihydropyridin-3-yl)amino)-7-(methylamino)pyrazolo[1,5-a]pyrimidine-3-carboxamide] yielded an inhibition at 10 µM [1] of less than 50%, a Kd [2] of less than 0.2 nM and an inhibition at 10 µM [3] of less than 50%.
In the case of `CNc1cc(-c2cnn(-c3ccccc3)c2)nc2c(C(N)=O)cnn12` [I-44], the inhibition at 10 µM [1] is reported as less than 50%, the Kd [2] is reported as 0.2 to 1 nM and the inhibition at 10 µM [3] is reported as less than 50%.
In the case of `CNc1cc(Nc2cccn(-c3ccc(C(=O)N4CCCC4)cn3)c2=O)nc2c(C(N)=O)cnn12` [I-45], the inhibition at 10 µM [1] is reported as less than 50%, the Kd [2] is reported as less than 0.2 nM and the inhibition at 10 µM [3] is reported as less than 50%.
With `CNc1cc(Nc2cccn(-c3cc(C)on3)c2=O)nc2c(C(N)=O)cnn12` [I-46] the inhibition at 10 µM [1] was less than 50%, the Kd [2] was less than 0.2 nM and the inhibition at 10 µM [3] was less than 50%.
In the case of `CNc1cc(Nc2cccn(-c3ccc(F)cn3)c2=O)nc2c(C(N)=O)cnn12` [I-48], the inhibition at 10 µM [1] is reported as less than 50%, the Kd [2] is reported as 0.2 to 1 nM and the inhibition at 10 µM [3] is reported as less than 50%.
`CCn1cc(Cl)cc(Nc2cc(N)n3ncc(C(N)=O)c3n2)c1=O` [I-49] showed an inhibition at 10 µM [1] of less than 50%, a Kd [2] of 0.2 to 1 nM and an inhibition at 10 µM [3] of less than 50%.
With `NC(=O)c1cnn2c(N)cc(Nc3cccn([C@H]4CC[C@H](O)CC4)c3=O)nc12` [I-50] the inhibition at 10 µM [1] was less than 50%, the Kd [2] was 0.2 to 1 nM and the inhibition at 10 µM [3] was less than 50%.
For `CNc1cc(Nc2cccn(-c3ccnc(C)n3)c2=O)nc2c(C(N)=O)cnn12` [I-51], the inhibition at 10 µM [1] was less than 50%, the Kd [2] was 0.2 to 1 nM and the inhibition at 10 µM [3] was less than 50%.
`NC(=O)c1cnn2c(N)cc(Nc3cccn(-c4ccc(F)cn4)c3=O)nc12` [I-52] showed an inhibition at 10 µM [1] of less than 50%, a Kd [2] of 0.2 to 1 nM and an inhibition at 10 µM [3] of less than 50%.
`CNc1cc(Nc2cc(C)nc(N3CCCC3=O)c2)nc2c(C(N)=O)cnn12` [I-54] showed an inhibition at 10 µM [1] of less than 50%, a Kd [2] of 1 to 10 nM and an inhibition at 10 µM [3] of less than 50%.
`Cc1cc(Nc2cc(N)n3ncc(C(N)=O)c3n2)cc(N2CCCC2=O)n1` [I-55] showed an inhibition at 10 µM [1] of less than 50%, a Kd [2] greater than 10 nM and an inhibition at 10 µM [3] of less than 50%.
`Cc1cc(Nc2cc(N)n3ncc(C(N)=O)c3n2)cc(N2CC[C@@H](O)C2)n1` [I-56] was tested, and the inhibition at 10 µM [1] was less than 50%, the Kd [2] was greater than 10 nM and the inhibition at 10 µM [3] was less than 50%.
`NC(=O)c1cnn2c(N)cc(Nc3cccn(-c4ccon4)c3=O)nc12` [I-57] showed an inhibition at 10 µM [1] of less than 50%, a Kd [2] of 0.2 to 1 nM and an inhibition at 10 µM [3] of less than 50%.
`NC(=O)c1cnn2c(N)cc(Nc3cccc(N4CCCC4=O)n3)nc12` [I-58] was tested, and the inhibition at 10 µM [1] was less than 50%, the Kd [2] was less than 0.2 nM and the inhibition at 10 µM [3] was 50 to 70%.
`CNc1cc(Nc2cccn([C@H]3CC[C@H](O)CC3)c2=O)nc2c(C(N)=O)cnn12` [I-59] showed an inhibition at 10 µM [1] of less than 50%, a Kd [2] of less than 0.2 nM and an inhibition at 10 µM [3] of less than 50%.
With `CNc1cc(Nc2cc(C)nc(N3CC[C@@H](O)C3)c2)nc2c(C(N)=O)cnn12` [I-60] the inhibition at 10 µM [1] was less than 50%, the Kd [2] was 1 to 10 nM and the inhibition at 10 µM [3] was less than 50%.
With `CNc1cc(Nc2cc(C)nc(N3CCC[C@@H](O)C3)c2)nc2c(C(N)=O)cnn12` [I-61] the inhibition at 10 µM [1] was less than 50%, the Kd [2] was 0.2 to 1 nM and the inhibition at 10 µM [3] was less than 50%.
Work on `CNc1cc(Nc2cccn(-c3cnc(C(C)(C)O)cn3)c2=O)nc2c(C(N)=O)cnn12` [I-63] yielded an inhibition at 10 µM [1] of less than 50%, a Kd [2] of less than 0.2 nM and an inhibition at 10 µM [3] of less than 50%.
Compound `Cc1cc(-n2cccc(Nc3cc(N)n4ncc(C(N)=O)c4n3)c2=O)no1` [I-64] has an inhibition at 10 µM [1] of less than 50%, a Kd [2] of 0.2 to 1 nM and an inhibition at 10 µM [3] of less than 50%.
Work on `CNc1cc(Nc2cccc(N3CCOC3=O)n2)nc2c(C(N)=O)cnn12` [I-65] yielded an inhibition at 10 µM [1] of less than 50%, a Kd [2] of less than 0.2 nM and an inhibition at 10 µM [3] of less than 50%.
`NC(=O)c1cnn2c(N)cc(Nc3cccc(N4CCOC4=O)n3)nc12` [I-66] was tested, and the inhibition at 10 µM [1] was less than 50%, the Kd [2] was 0.2 to 1 nM and the inhibition at 10 µM [3] was 50 to 70%.
In the case of `CNc1cc(Nc2cccn(C3CCN(CC(F)F)CC3)c2=O)nc2c(C(N)=O)cnn12` [I-67], the inhibition at 10 µM [1] is reported as less than 50%, the Kd [2] is reported as less than 0.2 nM and the inhibition at 10 µM [3] is reported as less than 50%.
